This is an account of results in US8318770B2, “Tetrahydroquinoline indole derivatives and uses thereof” (Roche Palo Alto LLC, priority 2009, dated 2012).

What all share (format): binding
For assay [1], the target named is T1, human serotonin transporter (hSERT) (Homo sapiens, UniProt P31645).
T1 construct: expressed in transfected cells; host or cells: HEK-293
The assay can be described thus: Human serotonin transporter (hSERT) scintillation proximity assay, competition with [3H]-Citalopram. As to conditions: membranes of HEK-293 cells expressing recombinant hSERT, Ki by Cheng-Prusoff. The procedure: The screening assay of this example was used to determine the affinity of ligands at the hSERT transporter by competition with [^3H]-Citalopram.
Scintillation Proximity Assay (SPA) works by bringing radioligand within close proximity to the bead's scintillant to stimulate light emission. In this assay, the receptor-containing membranes were pre-coupled to the SPA beads and the binding of the appropriate radioligand to the transporter was measured. The light emission was proportional to the amount of bound radioligand. Unbound radioligand produced no signal as a result of distant proximity to scintillant (lack of energy transfer). […]
(§1) Cell membranes were prepared using a membrane preparation buffer of 50 mM TRIS (pH 7.4). […] After a second centrifugation, the pellet was re-homogenized and brought to a final volume determined during the assay. […]
The % inhibition was calculated for each compound tested [(Compound counts per minute (CPM) at maximum concentration-Non-Specific CPM)/Total CPM*100]. […]
(§2) [formula] where max=total binding, min=non specific binding, x=concentration (M) of the tested compound and n=Hill slope. The inhibition dissociation constant (Ki) of each compound was determined according to the method of Cheng-Prusoff and then converted into negative logarithm (pKi) of the Ki.

Assay [2] addresses T2, human dopamine transporter (hDAT) (Homo sapiens, UniProt Q01959).
T2 construct: expressed in transfected cells; host or cells: HEK-293
The experiment in a line: Human dopamine transporter (hDAT) scintillation proximity assay, competition with [3H]-Vanoxerine. As to conditions: HEK-293 cells expressing recombinant hDAT, Ki by Cheng-Prusoff. The procedure:
This assay was used to determine the affinity of ligands for the dopamine transporter by competition with [^3H]-Vanoxerine.
HEK-293 cells (Tatsumi et al., Eur. J. Pharmacol. 1997, 30, 249-258) stably expressing recombinant hDAT were maintained with media (DMEM hi glucose with 10% FBS, […] G418 and 2 mM L-Glutamine) and incubated at 37° C. with 5% CO2. Cells were plated four hours prior to experiment by placing approximately 30,000 cells per well (in PBS) on white, opaque Cell-Tak coated 96 well plates. Extra buffer was apriated from the cell plates using an ELx405 plate washer.
^3[H] vanoxerine (GBR 12909) radioligand, specific activity approximately 59 Ci/mmol, stock concentration, 400 nM, and 50 mM Tris-HCl, 300 mM NaCl, (pH 7.4) buffers were used for Scintillation Proximity Assay IC50/Ki determination. […]
The % inhibition was calculated for each compound tested [(Compound CPM at maximum concentration-Non-Specific CPM)/Total CPM*100]. […]
as §2

The target of assay [3] is T3, human norepinephrine transporter (hNET) (Homo sapiens, UniProt P23975).
T3 construct: expressed in transfected cells; host or cells: HEK-293 (Clone: HEK-hNET #2)
T3 sequence (P23975 whole entry): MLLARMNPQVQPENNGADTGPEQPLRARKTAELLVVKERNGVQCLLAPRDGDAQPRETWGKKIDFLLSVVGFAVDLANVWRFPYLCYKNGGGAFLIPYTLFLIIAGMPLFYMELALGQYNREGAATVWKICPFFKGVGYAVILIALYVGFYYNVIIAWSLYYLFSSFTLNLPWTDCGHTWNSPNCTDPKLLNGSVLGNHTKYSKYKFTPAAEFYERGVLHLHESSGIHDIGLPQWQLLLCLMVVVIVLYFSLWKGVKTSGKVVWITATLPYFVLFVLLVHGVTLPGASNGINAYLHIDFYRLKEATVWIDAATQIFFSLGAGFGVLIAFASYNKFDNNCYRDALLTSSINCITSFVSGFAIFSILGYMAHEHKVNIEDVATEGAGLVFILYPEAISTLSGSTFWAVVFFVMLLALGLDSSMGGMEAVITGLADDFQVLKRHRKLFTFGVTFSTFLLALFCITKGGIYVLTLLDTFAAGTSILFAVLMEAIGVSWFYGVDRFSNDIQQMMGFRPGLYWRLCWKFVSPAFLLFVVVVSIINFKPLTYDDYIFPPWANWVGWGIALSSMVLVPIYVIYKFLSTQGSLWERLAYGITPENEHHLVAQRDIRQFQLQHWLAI
The experiment in a line: Human norepinephrine transporter (hNET) scintillation proximity assay, competition with [3H]-Nisoxetine. As to conditions: membranes of HEK-293 cells expressing recombinant hNET, Ki by Cheng-Prusoff. The procedure: This assay was used to determine the affinity of ligands for the hNET transporter by competition with [^3H]-Nisoxetine. As in the hSERT assay of the above example, receptor-containing membranes were pre-coupled to the SPA beads and the binding of the appropriate radioligand to the transporter was measured. The light emission was proportional to the amount of bound radioligand, with unbound radioligand producing no signal.
HEK-293 cells (Tatsumi et al., Eur. J. Pharmacol. 1997, 30, 249-258) stably expressing recombinant hNET (Clone: HEK-hNET #2) were maintained with media (DMEM hi glucose with 10% FBS, 300 ug/ml G418 and 2 mM L-Glutamine) and incubated at 37° C. with 5% CO2. Cells were released from culture flasks using PBS for 1-2 minutes. […]
as §1
^3[H] […] The mixtures were allowed to stand at room temperature for one hour, and were then counted on a Packard TopCount LCS, a generic SPA counting protocol settings (Energy Range: Low, Efficiency Mode: Normal, Region A: 1.50-35.00, Region B: 1.50-256.00, Count Time (min.): 0.40, Background Subtract: none, Half-Life Correction: no, Quench Indicator: tSIS, Platemap blank subtraction: No, Cross talk reduction: Off). […]

T1 sequence (P31645 whole entry): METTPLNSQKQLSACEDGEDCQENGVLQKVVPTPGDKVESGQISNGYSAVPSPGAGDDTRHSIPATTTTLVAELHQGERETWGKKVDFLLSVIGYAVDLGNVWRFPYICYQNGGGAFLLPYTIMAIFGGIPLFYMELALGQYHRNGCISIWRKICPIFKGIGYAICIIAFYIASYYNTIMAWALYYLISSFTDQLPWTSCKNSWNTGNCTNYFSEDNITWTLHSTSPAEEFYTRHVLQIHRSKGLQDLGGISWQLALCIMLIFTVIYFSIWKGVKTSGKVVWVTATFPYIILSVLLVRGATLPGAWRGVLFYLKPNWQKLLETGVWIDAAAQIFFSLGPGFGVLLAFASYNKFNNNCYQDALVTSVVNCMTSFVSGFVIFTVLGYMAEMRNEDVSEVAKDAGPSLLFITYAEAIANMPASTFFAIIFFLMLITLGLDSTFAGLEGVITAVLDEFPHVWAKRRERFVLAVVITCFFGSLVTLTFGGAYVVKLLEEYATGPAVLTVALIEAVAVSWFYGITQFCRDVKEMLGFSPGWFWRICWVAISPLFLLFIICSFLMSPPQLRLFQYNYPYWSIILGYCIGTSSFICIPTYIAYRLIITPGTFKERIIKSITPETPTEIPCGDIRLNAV
T2 sequence (Q01959 whole entry): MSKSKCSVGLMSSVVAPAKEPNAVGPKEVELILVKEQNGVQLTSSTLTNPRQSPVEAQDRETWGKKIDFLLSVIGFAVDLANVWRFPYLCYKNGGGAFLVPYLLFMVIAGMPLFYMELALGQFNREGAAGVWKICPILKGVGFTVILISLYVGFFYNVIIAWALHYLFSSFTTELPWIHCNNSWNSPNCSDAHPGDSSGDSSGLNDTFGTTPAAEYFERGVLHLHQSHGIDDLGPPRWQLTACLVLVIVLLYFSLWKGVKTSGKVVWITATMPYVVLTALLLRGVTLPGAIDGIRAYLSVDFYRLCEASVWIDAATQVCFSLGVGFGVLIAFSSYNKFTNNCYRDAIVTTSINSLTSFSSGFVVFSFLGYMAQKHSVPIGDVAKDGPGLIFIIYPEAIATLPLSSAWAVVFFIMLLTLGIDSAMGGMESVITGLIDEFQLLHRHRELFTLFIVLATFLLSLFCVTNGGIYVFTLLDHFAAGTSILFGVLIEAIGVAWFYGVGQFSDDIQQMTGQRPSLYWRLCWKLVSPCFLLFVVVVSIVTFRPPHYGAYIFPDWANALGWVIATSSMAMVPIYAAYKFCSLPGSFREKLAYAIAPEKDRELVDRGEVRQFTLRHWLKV

Consider `CNC1CCN(c2ccc3[nH]ccc3c2)c2ccccc21` (stereo not drawn) [[1-(1H-Indol-5-yl)-1,2,3,4-tetrahydro-quinolin-4-yl]-methyl-amine], for which the inhibitory constant (Ki) in assay [1] was approximately 33.1 nM; in assay [2], approximately 14.1 nM; in assay [3], approximately 15.5 nM.
